Experimental data taken from patent US6476039B1, “Ophthalmic composition” (R-Tech Ueno, Ltd., priority 1998, dated 2002).

Experiments:
Assay type in all cases: in vivo, rabbit
[1] = system: rabbits with dry eye syndrome induced by trigeminal denervation; assay: Basal tear secretion in rabbits with dry eye syndrome induced by trigeminal denervation
Description: (§1) Twenty male Japanese albino rabbits [Std:JW/CSK] were used.
(§2) Urethane (ALDRICH, Lot No.069110Q) was intraperitoneally administered at the dose of 1 g/kg to rabbits of which hair at the head after anesthesia had been shaved.
(§3) After disinfection of the shaved area, midline incision of the skin was made from the frontal bone to the ear root, and the periosteum and the muscular tissue around the temporal bone and mandibular articular process were detached. After the detachment, a hole of 2×1.5 cm in size was made in the bone from the parietal medial region to the temporal region by using a bone drill (URAWA KOGYO Co., Ltd., MINITOR.C-130) under the surgical microscope (KONAN CAMERA R& I Inc., PMO-50). Then the dura was detached from the cranial bone while cotton was kept inserted between the temporal bone and the dura. After the detachment was made up to the cranial base, detachment was further made toward the medial border of the petrous part of temporal bone in the cranial cavity, to find the trigeminal nerve in the petrous part. Then the dura of about 1 to 2 mm on the nasal side of the semilunar ganglion was incised. After the incision, the two branches of nerve fascicle, i.e. the first branch of the trigeminal nerve (ocular nerve) and the second branch (maxillary nerve), were pulled laterally and cut with corneoscleral scissors. After confirmation of miosis of the ipsilateral eye immediately after the cut, the cotton kept inserted was removed, and the skin at the head was closed with suture. After the operation, an antibiotic (MYCILLIN SOL®: Meiji) was administered intramuscularly at the dose of 0.1 mL/kg.
(§4) The trigeminal denervation was made only on the left eye side, while the trigeminal denervation on the right eye side or sham operation was not made
(§5) Two-week acclimation period was allowed to pass after the trigeminal denervation.
(§6) [3-(4-Bromo-2-fluorobenzyl)-7-chloro-2,4-dioxo- 1,2,3,4-tetrahydroquinazolin- 1-yl]acetate, an active ingredient of this invention, having aldose reductase-inhibiting effect was used for preparation of 0.03% eye drop, 0.1% eye drop, and 0.3% eye drop, which were used as the test substances. The vehicle control was the base of the eye drops simply without the active ingredient.
(§7) From about 2 weeks after the trigeminal denervation, one of the above-mentioned drugs was instilled at the volume of 30 μL/eye four times a day for 2 consecutive weeks. Five eyes of each of the test substance groups and the control group were examined for the basal tear secretion and the keratoepithelial lesion as follows.
Before the start of instillation (Week 0), and 1 week and 2 weeks after instillation, the basal tear secretion was measured one hour after the second instillation on the day of examination.
Keratoconjunctiva was anesthetized by instillation of 4% lidocaine (Xylocaine® 4% for ophthalmology: Fujisawa Pharmaceutical Co., Ltd.), and the eye drop and the tear around the eyelid were wiped off about 5 minutes later.
When loss of keratoconjunctival esthesia was confirmed with the Cochet-Bonnet type esthesiometer, the edge of the Shirmer's test paper was kept inserted into the conjunctival sac for 5 minutes, and the length of the moistened part was read from the scale on the paper.
The basal tear secretion was expressed by the mean per minute calculated from the 4-minute-value obtained by subtraction of the first-1-minute-value from the 5-minute-value of the Shirmer's test, so that the volume of the tear considered to be retained in the conjunctival sac might be excluded.

[2] = system: alloxan-induced diabetic rabbits; assay: Examination of tear secretion (Schirmer's test) in alloxan-induced diabetic rabbits; conditions: 1 minute
Experimental: (§8) Alloxan monohydrate (Lot No. DLJ5619, M.W. 160.09 Wako Pure Chemical Industries, LTD.) of 80 mg/kg was dissolved in 2 mL of physiological saline, and the solution was administered once intravenously of male Japanese albino rabbits [Std: JW/CSK] (11-week-old) to induce diabetes.
(§9) Blood glucose was determined once a week on 4 times after administration of alloxan monohydrate: animals having always blood glucose of 300 mg/dL or more were used as diabetic animals in this Experiment.
as §6, with “a” for “0.03% eye drop, 0.1% eye drop, and”, “drops, and the eye drops” for “drop, which”, “substance.” for “substances.”, “vehicle” for “base”
At the time of intravenous administration of alloxan, the drug was instilled into both eyes at 30 μL/eye four times a day over 4 consecutive weeks. […]
One hour after the second instillation on the day of examination, each animal was fixed in a stainless steel fixator, and the edge of the Schirmer's test paper (SHOWA YAKUHIN KAKO, Co., Ltd., Lot No.70080) was inserted into the conjunctival sac to cover the ⅓ of the lower eyelid on the ear side. One minute after, the paper was removed, and the length of the moistened part was read from the scale on the paper. […]

[3] = system: rabbits with dry eye syndrome induced by trigeminal denervation; assay: Keratoepithelial lesion score in rabbits with dry eye syndrome induced by trigeminal denervation
Description: as §1, §2, §3, §4, §5, §6, §7
Before the start of instillation (Week 0), and 1 week and 2 weeks after instillation, the lesion was evaluated one hour after the first instillation on the day of examination.
Each animal was placed in a stainless steel fixator, and given instillation of 50 μL of the mixture of 1% rose bengal and 1% fluorescein, followed by vital staining of the keratoconjunctival epithelium for evaluation of the extent of lesion according to the scoring system shown in Table 5.

[4] = system: alloxan-induced diabetic rabbits; assay: Repair of the wound of keratoepithelial detachment in alloxan-induced diabetic rabbits; conditions: 0.1% eye drop, 30 μL/eye every 4 hours, area immediately after detachment = 100, mean±S.E.
Experimental: Alloxan monohydrate (Lot No. DLJ5619, M.W. 160.09: Wako Pure Chemical Industries, LTD.) of 80 mg/kg was dissolved in 2 mL of physiological saline, and the solution was administered once intravenously of male Japanese albino rabbits [Std: JW/CSK] (11-week-old) to induce diabetes.
Blood glucose was determined weekly after administration of alloxan monohydrate: the mean blood glucose was increased from 142.2±4.7 mg/dL (mean±S.E.; The same is applicable hereinafter.) before administration to 522.5±13.7 mg/dL at 1 week, and this elevated level persisted thereafter. Animals with this alloxan-induced diabetes were used in the experiment. […]
The cornea was stained with fluorescein, and photographs of the anterior ocular segment were taken with the Medical Nikkor Lens attached with a yellow filter (Kodak WRATTEN No.12) and the front part of the flash attached with a blue filter (Kodak WRATTEN No.47). On the projected photographs magnified to the same degree, the stained area was measured with the planimeter. […]
Twelve hours after the keratoepithelial detachment, the area of the wound was measured. Then its relative value was calculated by taking the area of the wound immediately after the keratoepithelial detachment as 100. […]

[5] = system: normal (not diabetic) rabbits; assay: Repair of the wound of keratoepithelial detachment in normal rabbits; conditions: 0.2% eye drops, 30 μL/eye every 4 hours, area immediately after detachment = 100
Description: In the Experimental Example 1, the influence in rabbits with alloxan-induced diabetes was investigated, while the influence in normal (not diabetic) rabbits was investigated in this Example.
Ten-week-old male New Zealand White rabbits (weighing 2.07±0.11 kg: mean weight at the start of the experiment) were acclimation period for 7 days, while the animals were examined for the general signs including diarrhea and body weight, etc., and the anterior ocular segment was also observed. Only animals without any abnormality were used in the experiment.
Keratoepithelial detachment wounds were prepared as described in the Experimental Example 1.
The test substance was instilled every 4 hours after the keratoepithelial detachment (the first instillation was made immediately after preparation of the wound of keratoepithelial detachment).
Twelve hours after the keratoepithelial detachment, the area of the wound was measured, and its relative value was calculated by taking the area of the wound immediately after the keratoepithelial detachment as 100, and the relative value was used to assess the extent of repair. The area of the wound of keratoepithelial detachment was measured as described in the Experimental Example 1. […]

[6] = system: alloxan-induced diabetic rabbits; assay: Examination of corneal esthesia (Cochet-Bonnet esthesiometer) in alloxan-induced diabetic rabbits
Experimental: as §8, §9
as §6, with “a” for “0.03% eye drop, 0.1% eye drop, and”, “drops, and the eye drops” for “drop, which”, “substance.” for “substances.”, “vehicle” for “base”
At the time of intravenous administration of alloxan, the drug was instilled into both eyes at 30 μL/eye four times a day over 4 consecutive weeks. Sixteen eyes of 8 animals in each of the test substance group and the vehicle control group were subjected to the examination of corneal esthesia and the examination of tear secretion as follows.
One hour after the second instillation on the day of examination, each animal was fixed in a stainless steel fixator (SHIBATA GLASS WORKS). The central part, the most sensitive part, of the cornea was stimulated 10 times in rapid sequence with a pressure by applying at the right angle a 30 mm nylon thread (Toray Nylon Monofilament, Type 100, No.0.6, diameter φ: 0.027mm, cross section s: 0.0129) of the Cochet-Bonnet type esthesiometer (Handaya Co., Ltd.) so that the nylon thread might be bent only slightly (pressure: […], measured by Handaya), and the number of blink reflex was taken as the corneal esthesia value. The examination was performed before, 2 weeks after and 4 weeks after administration of alloxan.
In both examinations, the test substance group and the vehicle control group were compared with the Williams's test.

[7] = after 4 weeks, 0.3% eye drops, 30 μL/eye four times a day
[8] = before alloxan (baseline), 0.3% eye drops group

Compound: O=C(O)Cn1c(=O)n(Cc2ccc(Br)cc2F)c(=O)c2ccc(Cl)cc21 [compound of the formula (II), [3-(4-bromo-2-fluorobenzyl)-7-chloro-2,4-dioxo-1,2,3,4-tetrahydroquinazolin-1-yl]acetate]
- Basal tear secretion ([1]; 0.03% eye drop group, before instillation (baseline)): 0.38 ± 0.09 mm/minute
- Basal tear secretion ([1]; 0.03% eye drop, 30 μL/eye four times a day, week 1): 0.92 ± 0.17 mm/minute
- Basal tear secretion ([1]; 0.03% eye drop, 30 μL/eye four times a day, week 2): 1.02 ± 0.09 mm/minute
- Basal tear secretion ([1]; 0.1% eye drop group, before instillation (baseline)): 0.38 ± 0.13 mm/minute
- Basal tear secretion ([1]; 0.1% eye drop, 30 μL/eye four times a day, week 1): 1.24 ± 0.14 mm/minute
- Basal tear secretion ([1]; 0.1% eye drop, 30 μL/eye four times a day, week 2): 1.12 ± 0.11 mm/minute
- Basal tear secretion ([1]; 0.3% eye drop group, before instillation (baseline)): 0.34 ± 0.10 mm/minute
- Basal tear secretion ([1]; 0.3% eye drop, 30 μL/eye four times a day, week 1): 1.24 ± 0.16 mm/minute
- Basal tear secretion ([1]; 0.3% eye drop, 30 μL/eye four times a day, week 2): 1.20 ± 0.15 mm/minute
- tear secretion (Schirmer's test) [2, 7]: 7.1 ± 0.4 mm
- tear secretion (Schirmer's test) [2, 8]: 8.3 ± 0.6 mm
- Keratoepithelial lesion ([3]; 0.03% eye drop group, before instillation (baseline), score 0-4 by stained area (Table 5)): 2.8 ± 0.4 score
- Keratoepithelial lesion ([3]; 0.03% eye drop, four times a day, week 1, score 0-4 (Table 5)): 0.5 ± 0.4 score
- Keratoepithelial lesion ([3]; 0.03% eye drop, four times a day, week 2, score 0-4 (Table 5)): 0.2 ± 0.1 score
- Keratoepithelial lesion ([3]; 0.1% eye drop group, before instillation (baseline), score 0-4 (Table 5)): 3.0 ± 0.6 score
- Keratoepithelial lesion ([3]; 0.1% eye drop, four times a day, week 1, score 0-4 (Table 5)): 0.4 ± 0.2 score
- Keratoepithelial lesion ([3]; 0.1% eye drop, four times a day, week 2, score 0-4 (Table 5)): 0.4 ± 0.2 score
- Keratoepithelial lesion ([3]; 0.3% eye drop group, before instillation (baseline), score 0-4 (Table 5)): 3.0 ± 0.5 score
- Keratoepithelial lesion ([3]; 0.3% eye drop, four times a day, week 1, score 0-4 (Table 5)): 0.5 ± 0.4 score
- Keratoepithelial lesion ([3]; 0.3% eye drop, four times a day, week 2, score 0-4 (Table 5)): 0.1 ± 0.1 score
- Relative area of wound of keratoepithelial detachment 12 hours after keratoepithelial detachment [4]: 89.0 ± 2.7 %
- Relative area of wound of keratoepithelial detachment 12 hours after keratoepithelial detachment [5]: 80.8 ± 2.0 %
- Corneal esthesia value (number of blink reflex on 10 stimulations) ([6]; after 2 weeks, 0.3% eye drops, 30 μL/eye four times a day): 5.3 ± 0.7 number of times
- Corneal esthesia value (number of blink reflex on 10 stimulations) [6, 7]: 5.1 ± 0.6 number of times
- Corneal esthesia value (number of blink reflex on 10 stimulations) [6, 8]: 5.6 ± 0.3 number of times
